Reference: patent publication US20050038103A1, “Uses of dorzolamide” (priority 2003, published 2005)

Legend:
[1] = Sponsel et al., 1997; Harris et al., 1999; cited from earlier work
[2] = Visual fields in a patient with retinitis pigmentosa; conditions: for improvement in visual field: gtts (i) ou bid
[3] = Visual acuity (Snellen's chart) in patients with age-related macular degeneration; conditions: AMD patients
[4] = Night vision of patients being treated for glaucoma; assay type: in vivo, human
[5] = cited from earlier work

CCN[C@H]1C[C@H](C)S(=O)(=O)c2sc(S(N)(=O)=O)cc21 [dorzolamide]
contrast sensitivity [1]: enhance contrast sensitivity
perimetric light sensitivity [1]: increase perimetric light sensitivity
safety ([2]; gtts (i) bid): very safe
improvement in visual field ([2]; five weeks): marked improvement in visual field in the left eye
improvement in visual field ([2]; nine weeks): still more marked improvement in both eyes
safety ([3]; gtts (i) bid): very safe
improvement in visual acuity (one more line on Snellen's chart) ([3]; gtts (i) bid in one eye, one month): Most patients demonstrated objective (and subjective) improvement in visual acuity in one month
night vision [4]: improved the night vision
capillary dye transit in macula and optic nerve head ([5]; Harris et al., 1996): enhance capillary dye transit in macula and optic nerve head
retinal arteriovenous passage ([5]; Harris et al., 1999, 1996, 2001): accelerate retinal arteriovenous passage
increase of ocular pulse amplitude ([5]; Schmidt et al., 1998): 18-19%
